Measured values published in patent US10058516B2, “Design, synthesis and methods of use of acyclic fleximer nucleoside analogues having anti-coronavirus activity” (priority 2015, dated 2018).
Read-outs that look alike come from different tables or passages of the source.

Experiments:
VeroE6 cells = details: African green monkey
[1] = tested on: SARS-CoV (strain Frankfurt-1)
Vero cells = details: African green monkey
HCoV-NL63 = experiment: NL63-CoV antiviral assay (CPE scored microscopically)
SARS-CoV or MERS-CoV = details: cited from earlier work
[2] = Cytotoxicity in Vero118 cells (NL63 assay, cell viability scored microscopically); details: African green monkey, Vero118 cells, CC50: Cytotoxic concentration showing 50% inhibition of cell survival, Vero118 (HCoV-NL63 assay)
[3] = tested on: SARS-CoV (strain Frankfurt-1); experiment: microbe, parasite or virus in culture; details: Severe acute respiratory syndrome coronavirus
Huh7 cells = details: human
[4] = tested on: MERS-CoV (strain EMC/2012); experiment: microbe, parasite or virus in culture; type: cell-based; details: for EC50: Middle East respiratory syndrome-related coronavirus, Huh-7, read-out: EC50: Effective concentration showing 50% inhibition of virus-induced CPE
HIV-1 and HSV-2 = details: when McGuigan's ProTide technology was employed, cited from earlier work
[5] = tested on: MERS-CoV (strain EMC/2012); experiment: microbe, parasite or virus in culture; type: cell-based; details: Middle East respiratory syndrome-related coronavirus, Vero, read-out: EC50: Effective concentration showing 50% inhibition of virus-induced CPE
Vero118 cells = experiment: Cytotoxicity in Vero118 cells (NL63 assay, cell viability scored microscopically); details: read-out: CC50: Cytotoxic concentration showing 50% inhibition of cell survival; Vero118 (HCoV-NL63 assay)
in vitro = details: human
other viruses = details: cited from earlier work
coronavirus = coronavirus replication in vitro; cited from earlier work
[6] = Human coronavirus NL63, read-out: EC50: Effective concentration showing 50% inhibition of virus-induced CPE, HCoV-NL63 in Vero118
[7] = Vero C1008, read-out: EC50: Effective concentration showing 50% inhibition of virus-induced CPE

Nc1nc2c(ncn2COCCO)c(=O)[nH]1 [Acyclovir, acyclovir, reference compound]
CC50 (VeroE6 cells): > 1000 µM | block the replication of SARS-CoV [1]: had no effect | CC50 (Vero cells): > 1000 µM | EC50 (HCoV-NL63; [6]): > 100 µM | activity against SARS-CoV or MERS-CoV in vitro (SARS-CoV or MERS-CoV): none of these well-known antiviral drugs exhibited any activity | CC50 at 5 days [2]: > 100 µM | EC50 [3, 7]: > 1000 µM | CC50 (Huh7 cells): > 1000 µM | block the replication of MERS-CoV [4]: had no effect | EC50 [4]: > 1000 µM | suppression of replication of both HIV-1 and HSV-2 (HIV-1 and HSV-2; CD4+ T cells): 3 to 12 µmol/L | suppression of replication of both HIV-1 and HSV-2 (HIV-1 and HSV-2; lymphoid and cervicovaginal human tissues): submicromolar range | EC50 [5]: > 1000 µM

OCCOCn1cnc(-c2cnc(O)nc2O)c1 [Compound 1, 5-(1-((2-hydroxyethoxy)methyl)-1H-imidazol-4-yl)pyrimidine-2,4-diol]
EC50 (HCoV-NL63; [6]): 92 ± 68 µM | CC50 at 5 days [2]: > 200 µM

COc1nc(N)ncc1-c1cn(COCCO)cn1 [Compound 2, 2-((4-(2-amino-4-methoxypyrimidin-5-yl)-1H-imidazol-1-yl)methoxy)ethan-1-ol]
selective antiviral activity (CC50>10×) (HCoV-NL63; HCoV-NL63 in Vero118, CC50 relative to EC50): > 10 × | EC50 (HCoV-NL63; [6]): < 10 µM | EC50 (HCoV-NL63; read-out: EC50: Effective concentration showing 50% inhibition of virus-induced CPE, HCoV-NL63 in Vero118): 8.8 ± 1.5 µM | CC50 at 5 days [2]: > 100 µM | CC50 (Vero118 cells): 120 ± 37 µM | EC50 [3, 7]: 28.1 ± 0.2 µM | block the replication of MERS-CoV [4]: can block the replication of MERS-CoV | EC50 [4]: 13.5 µM | EC50 [5]: 10.1 ± 1.2 µM | CC50 (in vitro): 54 ± 1.7 µM

Nc1ncc(-c2cn(COCCO)cn2)c(O)n1 [Compound 3, 2-amino-5-(1-((2-hydroxyethoxy)methyl)-1H-imidazol-4-yl)pyrimidin-4(3H)-one]
EC50 (HCoV-NL63; [6]): > 200 µM | CC50 at 5 days [2]: > 200 µM

COc1nc(N)ncc1-c1cn(COCCOC(C)=O)cn1 [Compound 19, 2-((4-(2-amino-4-methoxypyrimidin-5-yl)-1H-imidazol-1-yl)methoxy)ethyl acetate]
CC50 as multiple of the EC50 [1]: ~3 times the EC50 | block the replication of SARS-CoV [1]: can block the replication | EC50 ([3]; Vero C1008): < 12 µM | EC50 [3, 7]: 11.9 ± 0.2 µM | block the replication of MERS-CoV [4]: can block the replication | EC50 [4]: 5.3 ± 0.7 µM | EC50 [5]: 3.4 ± 0.3 µM | CC50 (in vitro): 23.4 ± 0.4 µM

NC(=O)c1ncn([C@@H]2O[C@H](CO)[C@@H](O)[C@H]2O)n1 [Ribavirin, ribavirin]
inhibitory concentration needed to inhibit other viruses (other viruses): 50 to 100 µg/mL | inhibitory concentration (coronavirus): 500 to 5000 µg/mL

Nc1nc(O)c2ncn(COC(CO)CO)c2n1 [ganciclovir]
activity against SARS-CoV or MERS-CoV in vitro (SARS-CoV or MERS-CoV): none of these well-known antiviral drugs exhibited any activity

Cc1cn([C@H]2C[C@H](N=[N+]=[N-])[C@@H](CO)O2)c(=O)[nH]c1=O [zidovudine]
activity against SARS-CoV or MERS-CoV in vitro (SARS-CoV or MERS-CoV): none of these well-known antiviral drugs exhibited any activity
